Data published in patent US20050239656A1, “Pyridine compounds or salts thereof and herbicides containing the same” (priority 2002, published 2005).

What was measured:
barnyardgrass [1] = experiment: Test Example 1: foliage treatment, upland pot test; type: in vivo, Echinochloa crus-galli L.; details: active ingredient 500 g/ha, observed 18th to 23rd day, 0 = non-treated, 100 = complete kill
In short: (§1)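 Crops and weeds were sown in upland soil pots and sprayed post-emergence at set leaf stages (soybean 0.1–0.4, wheat 1.3–2.4, rice 1.2–2.6, barnyardgrass 1.3–2.8). Formulated compound was applied in 500 L/ha water with 0.1% spreader. Growth control (0–100%) was rated visually 18–23 days later.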

crabgrass [2] = experiment: Test Example 1: foliage treatment, upland pot test; type: in vivo, Digitaria sanguinalis L.; details: active ingredient 500 g/ha, observed 18th to 23rd day, 0 = non-treated, 100 = complete kill
green foxtail [3] = experiment: Test Example 1: foliage treatment, upland pot test; type: in vivo, Setaria viridis L.; details: active ingredient 500 g/ha, observed 18th to 23rd day, 0 = non-treated, 100 = complete kill
redroot pigweed [4] = experiment: Test Example 1: foliage treatment, upland pot test; type: in vivo, Amaranthus retroflexus L.; details: active ingredient 500 g/ha, observed 18th to 23rd day, 0 = non-treated, 100 = complete kill
prickly sida [5] = experiment: Test Example 1: foliage treatment, upland pot test; type: in vivo, Sida spinosa L.; details: active ingredient 500 g/ha, observed 18th to 23rd day, 0 = non-treated, 100 = complete kill
velvetleaf [6] = experiment: Test Example 1: foliage treatment, upland pot test; type: in vivo, Abutilon theophrasti MEDIC.; details: active ingredient 500 g/ha, observed 18th to 23rd day, 0 = non-treated, 100 = complete kill
rice [7] = experiment: Test Example 1: foliage treatment, upland pot test; type: in vivo, Oryza sativa L.; details: crop, active ingredient 500 g/ha, observed 18th to 23rd day, 0 = non-treated, 100 = complete kill
In short: as §1

corn [8] = experiment: Test Example 1: foliage treatment, upland pot test; type: in vivo, Zea mays L.; details: crop, active ingredient 500 g/ha, observed 18th to 23rd day, 0 = non-treated, 100 = complete kill
In short: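 Corn seeds were sown in upland field soil held in a 1/170,000 ha pot and grown to the 2.1 to 3.2 leaf stage. A wettable powder or emulsifiable concentrate of the test compound was diluted with water at 500 L/ha, given 0.1% (v/v) agricultural spreader, and sprayed onto the foliage with a small sprayer. Growth controlling degree (%) was scored visually 18th to 23rd days later, from 0 (non-treated) to 100 (complete kill).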

soybean [9] = experiment: Test Example 1: foliage treatment, upland pot test; type: in vivo, Glycine max Merr.; details: crop, active ingredient 500 g/ha, observed 18th to 23rd day, 0 = non-treated, 100 = complete kill
In short: as §1

barnyardgrass [10] = experiment: Test Example 2: soil surface treatment, upland pot test; type: in vivo, Echinochloa crus-galli L.; details: active ingredient 500 g/ha
In short: (§2)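 Visual growth-control ratings (0 = untreated, 100 = complete kill) were taken 20–28 days after soil surface application. The spray was made one day post-sowing in upland soil pots, using formulated compound diluted with water at 1,500 L/ha at a set active ingredient rate.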

crabgrass [11] = experiment: as above; type: in vivo, Digitaria sanguinalis L.; details: active ingredient 500 g/ha
In short: as §2

green foxtail [12] = experiment: as above; type: in vivo, Setaria viridis L.; details: active ingredient 500 g/ha
In short: as §2

redroot pigweed [13] = experiment: as above; type: in vivo, Amaranthus retroflexus L.; details: active ingredient 500 g/ha
In short: as §2

prickly sida [14] = experiment: as above; type: in vivo, Sida spinosa L.; details: active ingredient 500 g/ha
In short: as §2

velvetleaf [15] = experiment: as above; type: in vivo, Abutilon theophrasti MEDIC.; details: active ingredient 500 g/ha
In short: as §2

rice [16] = experiment: as above; type: in vivo, Oryza sativa L.; details: active ingredient 500 g/ha
In short: as §2

corn [17] = experiment: as above; type: in vivo, Zea mays L.; details: active ingredient 500 g/ha
In short: as §2

soybean [18] = experiment: as above; type: in vivo, Glycine max Merr.; details: active ingredient 500 g/ha
In short: as §2

barnyardgrass [19] = experiment: Test Example 3: paddy pot test, application under submerged conditions; type: in vivo, Echinochloa crus-galli L.; details: submerged application at 0.5 leaf stage, visually observed 14 days after application, 0 = non-treated, 100 = complete kill
In short: (§3)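 Barnyardgrass and japanese bulrush sown in flooded paddy soil in greenhouse pots, japanese ribbon wapato tubers planted 1–2 days later; water depth kept at 3–4 cm. Diluted wettable powder or emulsifiable concentrate applied into water at 0.5-leaf or primary-leaf stage at set active-ingredient doses. Growth control scored visually at 14 days, 0 (untreated) to 100% (complete kill).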

japanese bulrush = experiment: as above; type: in vivo, Scirpus juncoides; details: submerged application at 0.5 leaf stage, visually observed 14 days after application, 0 = non-treated, 100 = complete kill
In short: as §3

japanese ribbon wapato = experiment: as above; type: in vivo, Sagittaria pygniaea; details: submerged application at primary leaf stage, visually observed 14 days after application, 0 = non-treated, 100 = complete kill
In short: as §3

rice (var. Nihonbare) = experiment: Test Example 3: paddy pot test, transplanted rice; type: in vivo, Oryza sativa L.; details: applied 4th day after transplantation, visually observed 21st day after application, 0 = non-treated, 100 = complete kill
In short: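 Rice (var. Nihonbare) at 2 leaf stage transplanted 3 cm deep into puddled paddy soil under 3–4 cm flooding; on day 4 after transplanting, diluted wettable powder or emulsifiable concentrate applied by pipette under submerged conditions at a set active-ingredient dose. Growth scored visually 21 days after application, 0 (untreated) to 100 (complete kill) %.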

[20] = observed day 21, 0 = non-treated, 100 = complete kill

| SMILES | Growth controlling degree (%) Barnyardgrass (barnyardgrass [1]) | Growth controlling degree (%) Crabgrass (crabgrass [2]) | Growth controlling degree (%) Green foxtail (green foxtail [3]) | Growth controlling degree (%) Redroot pigweed (redroot pigweed [4]) | Growth controlling degree (%) Prickly sida (prickly sida [5]) | Growth controlling degree (%) Velvetleaf (velvetleaf [6]) | Growth controlling degree (%) Rice (rice [7]) | Growth controlling degree (%) Corn (corn [8]) | Growth controlling degree (%) Soybean (soybean [9]) | Growth controlling degree (%) Barnyardgrass (barnyardgrass [10]; [20]) | Growth controlling degree (%) Crabgrass (crabgrass [11]; [20]) | Growth controlling degree (%) Green foxtail (green foxtail [12]; [20]) | Growth controlling degree (%) Redroot pigweed (redroot pigweed [13]; [20]) | Growth controlling degree (%) Prickly sida (prickly sida [14]; [20]) | Growth controlling degree (%) Velvetleaf (velvetleaf [15]; [20]) | Growth controlling degree (%) Rice (rice [16]; [20]) | Growth controlling degree (%) Barnyardgrass (barnyardgrass [19]; active ingredient 250 g/ha) | Growth controlling degree (%) Japanese bulrush (japanese bulrush; active ingredient 250 g/ha) | Growth controlling degree (%) Japanese ribbon wapato (japanese ribbon wapato; active ingredient 250 g/ha) | Growth controlling degree (%) Rice (rice (var. Nihonbare); active ingredient 250 g/ha) | other results |
| --- | --- | --- | --- | --- | --- | --- | --- | --- | --- | --- | --- | --- | --- | --- | --- | --- | --- | --- | --- | --- | --- |
| CC(C)C(c1cnccc1C(F)(F)F)N(C)C(=O)Cc1cccs1 (stereo not drawn) [I-258] | 80% | 90% | 50% | 80% | 70% | 90% | 10% | 10% | 70% | 100% | 100% | 100% | 90% | 100% | 60% | 10% | 100% | 98% | 70% | 30% | Growth controlling degree (%) Corn (corn [17]; [20]): 0%; Growth controlling degree (%) Soyabean (soybean [18]; [20]): 10% |
| CCC(C)C(c1cnccc1C(F)(F)F)N(C)C(=O)COc1ccccc1 (stereo not drawn) [I-261] | 70% | 60% | 60% | 50% | 60% | 50% | 20% | 10% | 80% | 90% | 100% | 100% | 70% | 98% | 50% | 20% | 100% | 95% | 70% | 20% | Growth controlling degree (%) Corn (corn [17]; [20]): 20%; Growth controlling degree (%) Soyabean (soybean [18]; [20]): 20% |
| CC(C)C(c1cnccc1C(F)(F)F)N(C)C(=O)Cc1ccc(F)c(F)c1 (stereo not drawn) [I-60] | 60% | 80% | 70% | 60% | 70% | 90% | 50% | 70% | 35% | – | – | – | – | – | – | – | 100% | 70% | 95% | 30% | Growth controlling degree (%) Barnyardgrass (barnyardgrass [10]; observed 20th to 28th day): 98%; Growth controlling degree (%) Crabgrass (crabgrass [11]; observed 20th to 28th day): 100%; Growth controlling degree (%) Green foxtail (green foxtail [12]; observed 20th to 28th day): 98%; Growth controlling degree (%) Redroot pigweed (redroot pigweed [13]; observed 20th to 28th day): 80%; Growth controlling degree (%) Prickly sida (prickly sida [14]; observed 20th to 28th day): 98%; Growth controlling degree (%) Velvetleaf (velvetleaf [15]; observed 20th to 28th day): 70%; Growth controlling degree (%) Rice (rice [16]; observed 20th to 28th day): 20%; Growth controlling degree (%) Corn (corn [17]; observed 20th to 28th day): 10%; Growth controlling degree (%) Soyabean (soybean [18]; observed 20th to 28th day): 10% |
| CC(C)C(c1cnccc1C(F)(F)F)N(C)C(=O)Cc1cccc(C(F)(F)F)c1F (stereo not drawn) [I-29] | 60% | 90% | 60% | 80% | 80% | 80% | 10% | 10% | 50% | – | – | – | – | – | – | – | 100% | 70% | 10% | 10% | Growth controlling degree (%) Barnyardgrass (barnyardgrass [10]; observed 20th to 28th day): 100%; Growth controlling degree (%) Crabgrass (crabgrass [11]; observed 20th to 28th day): 99%; Growth controlling degree (%) Green foxtail (green foxtail [12]; observed 20th to 28th day): 100%; Growth controlling degree (%) Redroot pigweed (redroot pigweed [13]; observed 20th to 28th day): 70%; Growth controlling degree (%) Prickly sida (prickly sida [14]; observed 20th to 28th day): 98%; Growth controlling degree (%) Velvetleaf (velvetleaf [15]; observed 20th to 28th day): 70%; Growth controlling degree (%) Rice (rice [16]; observed 20th to 28th day): 30%; Growth controlling degree (%) Corn (corn [17]; observed 20th to 28th day): 20%; Growth controlling degree (%) Soyabean (soybean [18]; observed 20th to 28th day): 10% |
| CC(C)C(c1cnccc1C(F)(F)F)N(C)C(=O)C=Cc1ccc(Br)cc1 (stereo not drawn) [I-178] | 50% | 60% | 60% | 70% | 95% | 95% | 40% | 10% | 60% | – | – | – | – | – | – | – | – | – | – | – | Growth controlling degree (%) Barnyardgrass (barnyardgrass [10]; observed 20th to 28th day): 90%; Growth controlling degree (%) Crabgrass (crabgrass [11]; observed 20th to 28th day): 98%; Growth controlling degree (%) Green foxtail (green foxtail [12]; observed 20th to 28th day): 100%; Growth controlling degree (%) Redroot pigweed (redroot pigweed [13]; observed 20th to 28th day): 40%; Growth controlling degree (%) Prickly sida (prickly sida [14]; observed 20th to 28th day): 30%; Growth controlling degree (%) Velvetleaf (velvetleaf [15]; observed 20th to 28th day): 40%; Growth controlling degree (%) Rice (rice [16]; observed 20th to 28th day): 40%; Growth controlling degree (%) Corn (corn [17]; observed 20th to 28th day): 10%; Growth controlling degree (%) Soyabean (soybean [18]; observed 20th to 28th day): 0%; Growth controlling degree (%) Barnyardgrass (barnyardgrass [19]; active ingredient 500 g/ha): 98%; Growth controlling degree (%) Japanese bulrush (japanese bulrush; active ingredient 500 g/ha): 95%; Growth controlling degree (%) Japanese ribbon wapato (japanese ribbon wapato; active ingredient 500 g/ha): 40%; Growth controlling degree (%) Rice (rice (var. Nihonbare); active ingredient 500 g/ha): 0% |
| CCC(C)C(c1cnccc1C(F)(F)F)N(C)C(=O)Cc1ccccc1 (stereo not drawn) [I-260] | 80% | 80% | 50% | 40% | 95% | 90% | 40% | 80% | 90% | 80% | 98% | 100% | 70% | 95% | 70% | 10% | 100% | 98% | 60% | 10% | Growth controlling degree (%) Corn (corn [17]; [20]): 30%; Growth controlling degree (%) Soyabean (soybean [18]; [20]): 20% |
